In brackets after ≈: the same amount, converted by molar mass. Ends that are not written are not given here.

One assay deals with Fusarium oxysporum. The settings on record: cited from earlier work.
A further assay concerns Fusarium moniliforme. The settings on record: cited from earlier work.
Assay [1] relates to Methicillin resistant Staphylococcus aureus (ATCC 33591). The format is cell-based. The conditions noted are these: for MRSA IC50: Table 4. The procedure:
(§1) The antimicrobial compounds of the present invention were assayed using a standard microdilution assay against gram-positive bacteria Staphylococcus aureus (strain used: ATTC 29213) and methicillin-resistant strain used ATCC 33591) and the gram-negative bacteria Pseudomonas aeruginosa (strain used ATCC27853). The samples were assayed against 1-5×10^5 colony forming units, in Mueller-Hinton broth, at 37° C. The activity was determined following a 21 hour incubation. The IC50 values were calculated using sigmoidal curve fitting software. (Graphpad™, ISI Software, San Diego, Calif.) and correspond to the sample concentration which inhibits 50 percent of bacterial growth. The minimum inhibitory concenttration (MIC) is defined as the lowest concentration of sample at which no growth is detected by optical density between

For assay [2], the system named is Pseudomonas aeruginosa (ATCC27853). The format is cell-based. The settings on record: for Ps A. IC50: Table 4. The procedure: as §1

As to “Cecropin A: Cecropins are cationic linear peptides isolated from the hemolymph of the giant silk moth; insect-derived antimicrobial peptide (KWKLFKKIEKVGQNIRDGIIKAGPAVAVVGQATQIAK; ends and bridges not checked; UniProt P01507 27-63, looked up)”, the “concentration giving total killing” value with Fusarium oxysporum and with Fusarium moniliforme was 12.4 µg/mL in each case.

In general, IC50 refers to the concentration that gives 50% inhibition. Low readings indicate higher potency, high ones lower potency. For orientation: MIC means the lowest concentration that inhibits growth of the organism. A low value points to a more susceptible organism. As to `CC(C)C[C@H](NC[C@H](Cc1ccccc1)NC(=O)C(C)(C)NC(=O)[C@H](CCCCN)NC[C@@H](N)Cc1ccc2ccccc2c1)C(=O)O` [Compound 13, H-2-Nalψ[CH2NH]Lys-Aib-Pheψ[CH2NH]Leu-OH], in assay [1] (ATCC 33591), the IC50 came to 54 µg/mL (≈ 81.7 µM) and the MIC is 125 to 250 µg/mL. For the same compound, in assay [2] (ATCC27853, 21 h), the IC50 is 59 µg/mL (≈ 89.3 µM) and the MIC lay in the range of 80 to 125 µg/mL. For the same compound, in assay [2] (gram negative organism), the “activity against Pseudomonas aeruginosa (in words)” value is recorded as “good potency”.

The compound “H-2-Nalψ[CH2NH]Nle-Aib-Pheψ[CH2NH]Leu-OH [Compound 32]” displayed an MRSA IC50 in assay [1] of 35 µg/mL. Besides, the Ps A. IC50 in assay [2] was above 500 µg/mL.

On to “H-2-Nalψ[CH2NH]Met-Aib-Pheψ[CH2NH]Leu-NH2 [Compound 31]”, for which the MRSA IC50 in assay [1] amounted to 10.4 µg/mL. In assay [2], this compound had a Ps A. IC50 of 94 µg/mL.

Source of the values: patent US6551998B1, “Antimicrobial agents” (University of Louisville Research Foundation, Inc., priority 1999, dated 2003).
